Measurements published in US10869850B2, “Nitrated-fatty acids modulation of type II diabetes” (University of Pittsburgh—Of the Commonwealth System of …, priority 2007, dated 2020).
“Also recorded” adds a separate entry of the source. Read-outs that look alike come from different tables or passages of the source.

Legend:
WT mice [1] = assay: insulin sensitivity in WT mice (FIG. 5); format: in vivo, mouse
ob/ob mice [2] = assay: insulin sensitivity in ob/ob mice (FIG. 6); format: in vivo, mouse
ob/ob mice [3] = assay: blood glucose levels in leptin-deficient diabetic ob/ob mice (FIG. 3); format: in vivo, mouse; details: for blood glucose levels: over the course of the study, FIG. 3
Text: In a related vein, the invention encompasses a method for gauging the therapeutic efficacy of the composition as described above. This method involves obtaining at least two blood samples from a subject at different times during treatment and measuring the level of blood glucose in each sample.

WT mice [4] = assay: blood glucose levels in fed WT mice (FIG. 2); format: in vivo, mouse
Text: Similar results are observed in experiments involving ob/ob mice.

ob/ob mice [5] = details: mouse, in vivo
[6] = analysis of mouse plasma after intravenous administration of nitro oleic acid; format: in vivo
Description: In contrast, the plasma levels for the β-oxidation products are highest at around 60 minutes.

WT mice [7] = assay: body weight of WT mice (FIG. 4); details: course of the study (25 days)
ob/ob mice [8] = assay: body weight of ob/ob mice (FIG. 4); details: entire course of the study
[9] = following intravenous administration of nitro oleic acid

9- or 10-nitro octadecenoic acid [nitro oleic acid]
blood glucose levels after administration of insulin (WT mice [1]): initial drop in blood glucose levels followed by an elevation to normal levels
insulin sensitivity (ob/ob mice [2]): improves insulin sensitivity
blood glucose levels after administration of insulin (ob/ob mice [2]; FIG. 6): substantial decrease in blood glucose levels
blood glucose levels on day 21 versus beginning of the study (ob/ob mice [3]; day 21, FIG. 3): significantly lower on day 21 than at the beginning of the study
blood glucose levels (ob/ob mice [3]): lower blood glucose levels; also recorded: effective in reducing blood glucose levels
effectiveness in maintaining blood glucose levels compared with Rosiglitazone (WT mice [4]; WT mice): at least as effective as Rosiglitazone
blood glucose level (WT mice [4]; fed WT mice): maintains a steady blood glucose level
side-effects of weight gain and fluid retention (ob/ob mice [5]): without the side-effects of weight gain and fluid retention
shape of plasma level curve as a function of time [6, 9]: biphasic
time of peak plasma concentration [6, 9]: around 5 minutes
physiological fate (metabolism in vivo) ([6]; intravenous administration): converted in-vivo, to its saturated analog, or can undergo β-oxidative cleavage

CN(CCOc1ccc(CC2SC(=O)NC2=O)cc1)c1ccccn1 (stereo not drawn) [Rosiglitazone]
body weight (WT mice [7]): do not change over the course of the study
body weight (ob/ob mice [8]): steady increase in body weights

CCCCCCCC/C=C\CCCCCCCC(=O)O [oleic acid, (Z)-octadec-9-enoic acid, reference compound]
blood glucose levels (ob/ob mice [3]): blood glucose levels increased over the course of the study
body weight (ob/ob mice [5]): steady increase in body weights
